From US20120178742A1, “METABOTROPIC GLUTAMATE RECEPTOR MODULATORS” (MERZ PHARMA GmbH & CO. KGaA, priority 2009, published 2012) come the findings set out here.

In one assay the target is T1, monoamine oxidase MAO-B (Homo sapiens, UniProt P27338).
T1 construct: host or cells: insect Hi5 cells
T1 sequence (P27338 1-520): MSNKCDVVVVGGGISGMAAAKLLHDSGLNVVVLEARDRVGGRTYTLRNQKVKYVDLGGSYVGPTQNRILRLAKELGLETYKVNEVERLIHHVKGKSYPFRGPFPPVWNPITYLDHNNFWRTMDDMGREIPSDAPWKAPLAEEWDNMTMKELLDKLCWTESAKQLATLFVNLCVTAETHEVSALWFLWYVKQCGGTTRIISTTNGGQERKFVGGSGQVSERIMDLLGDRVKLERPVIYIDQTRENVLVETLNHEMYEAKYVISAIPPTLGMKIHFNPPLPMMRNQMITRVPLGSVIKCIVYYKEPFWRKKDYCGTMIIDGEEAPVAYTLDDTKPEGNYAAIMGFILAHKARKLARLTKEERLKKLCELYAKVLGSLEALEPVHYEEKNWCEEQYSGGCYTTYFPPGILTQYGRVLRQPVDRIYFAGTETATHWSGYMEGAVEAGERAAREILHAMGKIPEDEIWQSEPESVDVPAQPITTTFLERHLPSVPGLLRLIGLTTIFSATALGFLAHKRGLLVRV
Briefly: Inhibition of monoamine oxidase MAO-B. In kind it is biochemical. The following applies: recombinant human enzyme expressed in insect Hi5 cells, 50 uM kynuramine. The method, then:
The inhibition of the enzyme monoamine oxidase MAO-B is tested with an enzyme from recombinant source, namely of the human enzyme expressed in insect Hi5 cells. Following a pre-incubation of the test compounds with the enzyme for 15 minutes at 37° C. in the incubation buffer (100 mM potassium phosphate, pH 7.4), the enzymatic reaction with 50 uM kynuramine is carried out for 60 minutes. The reaction product 4-hydroxyquinoline is quantified by spectrofluorometry. The compound vehicle used for this assay is 1% DMSO.

The next assay has as its target T2, mGluR5 receptors (Rattus norvegicus, UniProt P31424).
T2 construct: Primary astrocyte cultures are prepared from cortices of newborn rats; endogenous in cells; host or cells: primary rat cortical astrocytes (Sprague-Dawley pups)
Briefly: Cytosolic calcium studies with cultured rat astrocytes. In kind it is cell-based. As to the method:
Primary astrocyte cultures are prepared from cortices of newborn rats as described by Booher and Sensenbrenner (1972, Neurobiology 2(3):97-105). Briefly, Sprague-Dawley rat pups (2-4 d old) are decapitated and neocortices are dissected, disintegrated with a nylon filter (pore size 80 μm) and carefully triturated. The cell suspension is plated on poly-D-lysine pre-coated flasks (Costar, Netherlands) and cultivated in Dulbecco's Modified Eagle's Medium (DMEM, Invitrogen, Germany) supplemented with 10% foetal calf serum (FCS, Sigma, Germany), 4 mM glutamine and […] gentamycin (both Biochrom, Germany) at 37° C. in a humidified atmosphere of 5% CO2/95% air for 7 days with exchanging the medium at day 2 and 6.
After 7 days in vitro (DIV), cells are shaken overnight at 250 rpm to remove oligodendrocytes and microglia. The next day, astrocytes are rinsed twice with CMF-PBS (calcium- and magnesium-free phosphate buffered saline, Biochrom, Germany), trypsinized and subplated on poly-D-lysine pre-coated 96-well plates (Greiner, Germany) at a density of 40,000 cells/well. 24 h after establishing the secondary culture the astrocytes are rinsed with PBS″ (phosphate buffered saline, Biochrom, Germany) and fed with astrocyte-defined medium (ADM) consisting of DMEM containing 1× G5-supplement (Invitrogen, Germany), 0.5 μg/ml heparan sulfate, and 1.5 μg/ml fibronectin (both Sigma, Germany) (Miller et al., (1993) Brain Res. 618(1):175-8). 3 days later the medium is exchanged and the cells incubated for another 2-3 days, so that at the time of experiments astrocytes are 14-15 DIV.
The increase of cytosolic calcium after stimulation with the mGluR5 agonist L-quisqualate is measured using a fluorometric imaging plate reader (FLIPR) and the Ca-Kit (both Molecular Devices). Prior to addition of agonist or antagonist the medium is aspirated and cells are loaded for 2 h at RT with 150 μl of loading buffer consisting of Ca-sensitive dye reconstituted in sodium chloride (123 mM), potassium chloride (5.4 mM), magnesium chloride (0.8 mM), calcium chloride (1.8 mM), D-glucose (15 mM), and HEPES (20 mM), pH 7.3. Subsequently, plates are transferred to FLIPR to detect calcium increase with the addition of L-quisqualate (100 nM) measured as relative fluorescence units (RFU). If antagonists are tested, these compounds are pre-incubated for 10 minutes at RT before addition of the respective agonist.
Thereafter, concentration-response curves for the positive modulator are performed in the presence of a fixed concentration of quisqualate showing the biggest window for potentiation (normally 10-30 nM).
(§1) The fluorescence signal increase after addition of agonist reflects the increase of cytosolic calcium. Inconsistencies in the amount of cells per well are normalised by using the spatial uniformity correction of the FLIPR operating software Screenworks. The mean of replicated temporal data (n=3-5) is calculated and used for graphical representation. For the evaluation of the pharmacology, the calcium changes in response to different concentrations of agonist or antagonist are determined using a maximum minus minimum (MaxMin) calculation.
(§2) All responses (RFU-values) are determined as percentage of control (=maximum response). EC50 and IC50 are calculated according the logistic equation using Prism 4.0 (GraphPad Software, USA).

The target in assay [1] is T3, human metabotropic glutamate receptor mGluR5 (Homo sapiens, UniProt P41594).
T3 construct: expressed in transfected cells; host or cells: CHO-K1
As to the kind of experiment: Cytosolic calcium studies with stably transfected cells (CHO-K1). In kind it is cell-based. The method, then: Functional Assay of mGluR5 Receptors Cytosolic Calcium Studies with Stably Transfected Cells
Chinese hamster ovary cells (CHO-K1 cells), stably transfected for inducible expression of a human metabotropic glutamate receptor mGluR5, are seeded into black clear bottom 96 well plates at a density of 35.000 cells per well. The standard growth medium used (Dulbecco's modified Eagle Medium, DMEM plus L-proline) contains the appropriate inducer isopropyl-β-D-thiogalactopyranosid (IPTG) to achieve optimal receptor expression. One day after seeding the growth medium is exchanged for reconstituted Ca-Kit (Molecular Devices, USA) and incubated for one hour. Ca-Kit is reconstituted in an assay buffer containing 20 mM HEPES pH 7.4, glutamic-pyruvate transaminase, pyridoxal phosphate and sodium pyruvate in Hank's balanced salt solution (HBBS). Agonistic compounds to the receptor elicit increases in cytosolic calcium which can be measured as increases in fluorescence signals by use of a fluorescence imaging plate reader (Molecular Devices). […] Similarly, for the characterization of positive allosteric modulators, a dilution series of the test compound is added online to 384 well plates containing the described dye loaded cells and after a preincubation time of 5 minutes stimulated by a basal cell concentration of the agonist L-glutamate giving about 20% of the maximal signal.
as §1, §2

Molecules are shown by their SMILES. pEC50, pIC50: −log10 of the molar value.

T3 sequence (P41594 21-1212): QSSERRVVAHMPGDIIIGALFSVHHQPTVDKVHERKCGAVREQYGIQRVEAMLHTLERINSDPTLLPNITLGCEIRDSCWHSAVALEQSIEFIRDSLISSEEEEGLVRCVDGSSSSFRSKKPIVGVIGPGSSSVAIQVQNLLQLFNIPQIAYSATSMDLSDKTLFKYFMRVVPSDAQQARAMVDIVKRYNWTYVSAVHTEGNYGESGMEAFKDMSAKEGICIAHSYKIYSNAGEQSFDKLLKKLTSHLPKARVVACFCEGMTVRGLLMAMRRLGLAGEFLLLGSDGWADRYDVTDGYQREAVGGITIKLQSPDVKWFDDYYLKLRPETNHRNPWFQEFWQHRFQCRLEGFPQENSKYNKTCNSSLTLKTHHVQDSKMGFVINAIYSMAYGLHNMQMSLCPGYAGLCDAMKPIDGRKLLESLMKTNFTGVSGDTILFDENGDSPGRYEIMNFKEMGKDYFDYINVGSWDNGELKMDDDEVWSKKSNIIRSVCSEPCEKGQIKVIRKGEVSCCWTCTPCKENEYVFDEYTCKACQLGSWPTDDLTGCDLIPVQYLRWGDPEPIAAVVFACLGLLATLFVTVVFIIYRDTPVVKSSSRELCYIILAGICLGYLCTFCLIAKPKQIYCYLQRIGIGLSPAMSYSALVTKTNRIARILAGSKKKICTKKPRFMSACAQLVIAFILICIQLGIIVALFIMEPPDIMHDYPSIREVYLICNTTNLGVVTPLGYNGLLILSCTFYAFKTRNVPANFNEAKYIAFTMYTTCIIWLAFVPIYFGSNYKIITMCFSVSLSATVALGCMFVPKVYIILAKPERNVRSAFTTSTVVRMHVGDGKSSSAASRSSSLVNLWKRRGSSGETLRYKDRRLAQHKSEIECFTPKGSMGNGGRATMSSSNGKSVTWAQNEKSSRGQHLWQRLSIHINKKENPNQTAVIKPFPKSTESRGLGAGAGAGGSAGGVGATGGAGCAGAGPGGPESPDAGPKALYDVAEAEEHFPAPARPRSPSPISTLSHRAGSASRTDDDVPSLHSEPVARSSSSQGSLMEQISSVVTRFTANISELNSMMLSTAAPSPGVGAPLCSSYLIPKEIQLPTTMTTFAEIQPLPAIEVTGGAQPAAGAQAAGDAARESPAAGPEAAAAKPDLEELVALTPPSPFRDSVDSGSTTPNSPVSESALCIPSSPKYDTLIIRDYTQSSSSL
T2 sequence (P31424 21-1203): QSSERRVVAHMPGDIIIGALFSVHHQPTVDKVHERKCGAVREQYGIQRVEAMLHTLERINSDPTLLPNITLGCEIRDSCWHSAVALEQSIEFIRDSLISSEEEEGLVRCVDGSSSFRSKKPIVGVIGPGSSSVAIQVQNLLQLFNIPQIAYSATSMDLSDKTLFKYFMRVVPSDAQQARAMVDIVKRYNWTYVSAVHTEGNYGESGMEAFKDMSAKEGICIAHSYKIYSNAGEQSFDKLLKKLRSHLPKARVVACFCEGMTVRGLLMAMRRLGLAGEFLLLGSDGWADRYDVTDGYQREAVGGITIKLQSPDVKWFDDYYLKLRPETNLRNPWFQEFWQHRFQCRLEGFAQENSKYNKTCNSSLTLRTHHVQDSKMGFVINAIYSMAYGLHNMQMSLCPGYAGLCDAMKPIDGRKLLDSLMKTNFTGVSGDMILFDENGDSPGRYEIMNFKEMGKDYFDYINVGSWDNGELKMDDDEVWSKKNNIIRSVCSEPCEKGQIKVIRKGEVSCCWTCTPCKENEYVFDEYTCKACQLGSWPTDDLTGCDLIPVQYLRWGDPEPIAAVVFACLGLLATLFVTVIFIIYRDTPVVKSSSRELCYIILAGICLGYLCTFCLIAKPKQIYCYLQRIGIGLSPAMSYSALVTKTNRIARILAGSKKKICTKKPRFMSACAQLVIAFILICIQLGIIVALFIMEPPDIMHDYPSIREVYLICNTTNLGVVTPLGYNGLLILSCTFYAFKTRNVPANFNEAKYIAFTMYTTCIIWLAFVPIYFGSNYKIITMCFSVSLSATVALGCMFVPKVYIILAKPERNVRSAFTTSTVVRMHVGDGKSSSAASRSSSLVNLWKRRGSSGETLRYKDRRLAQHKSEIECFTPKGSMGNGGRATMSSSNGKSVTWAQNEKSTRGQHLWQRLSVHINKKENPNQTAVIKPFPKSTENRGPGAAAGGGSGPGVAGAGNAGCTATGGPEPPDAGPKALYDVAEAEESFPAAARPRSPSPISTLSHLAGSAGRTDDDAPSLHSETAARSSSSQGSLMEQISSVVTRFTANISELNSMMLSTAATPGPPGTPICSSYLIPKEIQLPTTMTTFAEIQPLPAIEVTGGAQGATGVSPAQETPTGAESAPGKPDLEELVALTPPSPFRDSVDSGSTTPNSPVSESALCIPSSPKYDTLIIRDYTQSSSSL

For `Fc1ccc(C#Cc2cnc3ncsc3c2)cc1` [Example 46, 6-(4-Fluoro-phenylethynyl)-thiazolo[4,5-b]pyridine], the pIC50 at monoamine oxidase MAO-B is 6.27. Besides, the pEC50 on mGluR5 receptors was 7.04; in assay [1] it was 7.24.

For `Fc1cccc(C#Cc2cnc3nccnc3c2)c1` [Example 60, 7-(3-Fluoro-phenylethynyl)-pyrido[2,3-b]pyrazine], on monoamine oxidase MAO-B, the negative logarithm of the IC50 (pIC50) is 7.05. Further, the values for the pEC50 (on mGluR5 receptors; in assay [1]) were 7.27 and 7.00, respectively.

Consider `Fc1ccccc1C#Cc1cnc2nccnc2c1` [Example 61, 7-(2-Fluoro-phenylethynyl)-pyrido[2,3-b]pyrazine], for which, on monoamine oxidase MAO-B, the negative-log IC50 (pIC50) was 7.43. Moreover, the pEC50 on mGluR5 receptors was 6.72; in assay [1], 6.52.

With `C(#Cc1cnc2nc(N3CCCCC3)sc2c1)c1ccccc1` [Example 81, 6-Phenylethynyl-2-piperidin-1-yl-thiazolo[4,5-b]pyridine], the pIC50 on monoamine oxidase MAO-B was 6.28. Further, the negative logarithm of the EC50 (pEC50) in assay [1] was 7.04.
